Source: patent publication US12357619B2, “Noradrenergic and specific serotonergic anxiolytic and antidepressant, method for the production and use thereof” (ALLA CHEM, LLC, priority 2020, dated 2025)

Experiments:
[1] = biological target: T1, Adrenergic α2A (Homo sapiens, UniProt P08913); assay: Receptor activities, Ki (Table 1); type: binding
T1 sequence (P08913 1-465): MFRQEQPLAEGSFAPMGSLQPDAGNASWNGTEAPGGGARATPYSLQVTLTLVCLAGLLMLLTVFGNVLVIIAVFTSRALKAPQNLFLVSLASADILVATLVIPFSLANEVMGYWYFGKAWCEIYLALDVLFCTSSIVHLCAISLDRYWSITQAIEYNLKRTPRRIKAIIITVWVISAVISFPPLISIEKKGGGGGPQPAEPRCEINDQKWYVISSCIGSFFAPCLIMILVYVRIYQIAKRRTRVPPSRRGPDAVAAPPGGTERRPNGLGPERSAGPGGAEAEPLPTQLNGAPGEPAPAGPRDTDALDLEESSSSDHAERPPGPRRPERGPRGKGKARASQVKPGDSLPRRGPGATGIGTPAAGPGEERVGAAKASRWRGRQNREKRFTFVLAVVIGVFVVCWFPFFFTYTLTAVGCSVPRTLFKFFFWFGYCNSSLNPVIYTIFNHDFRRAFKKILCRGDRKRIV

[2] = biological target: T2, Serotonin 5-HT1A (Homo sapiens, UniProt P08908); assay: Receptor activities, Ki (Table 1); type: binding
T2 sequence (P08908 1-422): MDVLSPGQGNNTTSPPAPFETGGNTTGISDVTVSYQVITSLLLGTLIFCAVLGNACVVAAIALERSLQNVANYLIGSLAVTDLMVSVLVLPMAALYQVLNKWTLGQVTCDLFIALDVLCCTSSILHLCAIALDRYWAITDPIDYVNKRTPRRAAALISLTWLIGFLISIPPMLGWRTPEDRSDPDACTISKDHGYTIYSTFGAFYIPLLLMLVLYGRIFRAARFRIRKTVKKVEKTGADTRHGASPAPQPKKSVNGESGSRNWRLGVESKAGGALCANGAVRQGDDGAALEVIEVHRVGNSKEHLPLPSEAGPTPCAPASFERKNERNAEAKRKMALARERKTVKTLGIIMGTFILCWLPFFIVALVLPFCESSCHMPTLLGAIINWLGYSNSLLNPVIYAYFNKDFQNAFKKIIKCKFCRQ

[3] = biological target: T3, Serotonin 5-HT2C (Homo sapiens, UniProt P28335); assay: Receptor activities, Ki (Table 1); type: binding
T3 sequence (P28335 33-458): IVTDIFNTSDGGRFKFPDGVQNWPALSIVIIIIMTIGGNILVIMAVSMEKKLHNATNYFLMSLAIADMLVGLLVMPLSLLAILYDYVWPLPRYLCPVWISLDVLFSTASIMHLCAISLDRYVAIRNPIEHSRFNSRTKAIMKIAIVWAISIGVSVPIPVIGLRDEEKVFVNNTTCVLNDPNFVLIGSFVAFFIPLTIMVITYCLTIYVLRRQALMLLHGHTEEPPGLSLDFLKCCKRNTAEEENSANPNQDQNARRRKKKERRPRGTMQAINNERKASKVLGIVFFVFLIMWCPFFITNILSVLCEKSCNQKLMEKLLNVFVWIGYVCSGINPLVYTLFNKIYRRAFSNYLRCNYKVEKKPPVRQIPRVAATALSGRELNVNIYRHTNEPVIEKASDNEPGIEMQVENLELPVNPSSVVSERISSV

[4] = biological target: Serotonin 5-HT7 (Homo sapiens, UniProt P34969); assay: Receptor activities, Ki (Table 1); type: binding
Sequence of Serotonin 5-HT7 (P34969 whole entry): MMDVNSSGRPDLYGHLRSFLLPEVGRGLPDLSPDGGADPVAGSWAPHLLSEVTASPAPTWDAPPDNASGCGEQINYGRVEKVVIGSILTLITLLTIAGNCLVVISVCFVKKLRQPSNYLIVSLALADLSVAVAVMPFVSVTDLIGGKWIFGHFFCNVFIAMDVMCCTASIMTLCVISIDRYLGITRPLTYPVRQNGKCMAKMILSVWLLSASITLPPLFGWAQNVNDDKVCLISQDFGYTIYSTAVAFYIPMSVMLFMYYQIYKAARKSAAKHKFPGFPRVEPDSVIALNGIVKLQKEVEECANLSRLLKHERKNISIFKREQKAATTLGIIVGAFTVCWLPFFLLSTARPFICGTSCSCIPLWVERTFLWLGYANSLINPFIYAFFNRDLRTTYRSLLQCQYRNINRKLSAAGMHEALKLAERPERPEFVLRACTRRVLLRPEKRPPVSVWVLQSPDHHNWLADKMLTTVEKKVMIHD

[5] = tested on: people with generalized anxiety disorder (GAD); assay: Randomized double-blind placebo-controlled GAD study, Hamilton anxiety scale (HARS); type: in vivo, human; conditions: for HARS average change (standard error): after 8 weeks; for Patients who attained a 50% HARS total score reduction at Week 8, percentage / Patients who attained a 50% HARS total score reduction at Week 8, X (number): MITT population
Method: Example 12. Efficacy and safety study of the oral drug of this invention made as a pharmaceutical composition of this invention in capsules. […] During the study, 3 scheduled visits were conducted in Week 2, Week 4, and Week 8 to assess the effectiveness and safety of the therapy as well as drug inventory and administration. During all of those visits, the patient's diary was checked, a drug inventory was made and the patients' compliance was assessed. In addition, adverse events, concomitant therapy, and vital signs were evaluated, urine drug screen was performed, and assessments using Hamilton Anxiety Rating Scale (HARS), Hamilton Depression Scale (HAMD), Clinical Global Impression-Severity (CGI-S), Clinical Global Impression-Improvement (CGI-I), and Visual Analog Scale (VAS) were made; women of child-bearing potential will take a urine pregnancy test. Also, during visits at Week 4 and Week 8 a physical examination was performed, body weight was measured, an ECG was performed in 12 leads and blood and urine samples were obtained for laboratory tests, namely: urinalysis and biochemical blood analysis, PK analysis before and 1 hour after taking the study drug (SD), and urinalysis. At Week 4, a blood sample was also obtained for genotyping by CYP2D6. At Week 8, treatment in the groups was completed, and all patients were prescribed a placebo to be taken during the follow-up period, which lasted 1 week. During this time, a possible development of SD withdrawal syndrome against the background of placebo was evaluated. During the visit at Week 9, the patient's diary was checked, a drug inventory was made and the patients' compliance was assessed. In addition, adverse events, concomitant therapy, and vital signs were evaluated, urine drug screen was performed, and assessments using the Hamilton Anxiety Rating Scale (HARS), Hamilton Depression Scale (HAMD), Clinical Global Impression-Severity (CGI-S), Clinical Global Impression-Improvement (CGI-I), and Visual Analog Scale (VAS) were made; women of child-bearing age will take a urine pregnancy test. At this point, the patients' participation in the study was completed, and they received recommendations for further treatment as part of standard GAD therapy.

[6] = tested on: people with generalized anxiety disorder (GAD); assay: Randomized double-blind placebo-controlled GAD study, visual analog scale (VAS); type: in vivo, human; conditions: after 8 weeks
Method: (§1) Example 12. Efficacy and safety study of the oral drug of this invention made as a pharmaceutical composition of this invention in capsules. […] During the study, 3 scheduled visits were conducted in Week 2, Week 4, and Week 8 to assess the effectiveness and safety of the therapy as well as drug inventory and administration. During all of those visits, the patient's diary was checked, a drug inventory was made and the patients' compliance was assessed. In addition, adverse events, concomitant therapy, and vital signs were evaluated, urine drug screen was performed, and assessments using Hamilton Anxiety Rating Scale (HARS), Hamilton Depression Scale (HAMD), Clinical Global Impression-Severity (CGI-S), Clinical Global Impression-Improvement (CGI-I), and Visual Analog Scale (VAS) were made; women of child-bearing potential will take a urine pregnancy test. Also, during visits at Week 4 and Week 8 a physical examination was performed, body weight was measured, an ECG was performed in 12 leads and blood and urine samples were obtained for laboratory tests, namely: urinalysis and biochemical blood analysis, PK analysis before and 1 hour after taking the study drug (SD), and urinalysis. At Week 4, a blood sample was also obtained for genotyping by CYP2D6. […] During this time, a possible development of SD withdrawal syndrome against the background of placebo was evaluated. […]

[7] = tested on: people with generalized anxiety disorder (GAD); assay: Randomized double-blind placebo-controlled GAD study, clinical global impression-improvement (CGI-I); type: in vivo, human; conditions: after 8 weeks
Method: as §1

[8] = tested on: volunteers; assay: Safety of increasing doses, single and multiple dosing of capsules in volunteers (Example 11); type: in vivo, human
Method: Example 11. Safety study of increasing doses of the oral drug of this invention made as a pharmaceutical composition of this invention in capsules. Clinical safety study of increasing doses of the antipsychotic drug made as a pharmaceutical composition of this invention in capsules for single and multiple dosing. The study covered one cohort of 4 volunteers taking antipsychotic drug once at a dose of 20 mg, and then at the same dose 2 times a day for 4 days. Based on the three-week safety data obtained in the 20-mg cohort taking antipsychotic drug twice a day, the independent safety data monitoring Committee took a decision to involve a second cohort of 4 volunteers, in which the antipsychotic drug under test was taken once at a dose of 20 mg and then 3 times a day for 4 days at the same dose.

[9] = 20 mg once, then 20 mg 2 or 3 times a day for 4 days

Compound: Cc1ccc2c(c1)c1c(n2CCc2ccccc2)CCN(C)C1.Cl [A•HCl, 2,8-dimethyl-5-(2-phenylethyl)-2,3,4,5-tetrahydro-1H-pyrido[4,3-b]indole hydrochloride]
- Ki [1]: 1.77 nM
- Ki [2]: 61 nM
- Ki [3]: 1.17 nM
- Ki [4]: 0.153 nM
- HARS average change (standard error) ([5]; 40 mg, N = 42, average at Week 0 26.9): −13.4 (1.37)
- HARS average change (standard error) ([5]; 60 mg, N = 44, average at Week 0 26.5): −12.9 (1.37)
- Patients who attained a 50% HARS total score reduction at Week 8, percentage ([5]; Dose 60 mg, N = 40): (55.0%)
- Patients who attained a 50% HARS total score reduction at Week 8, X (number) ([5]; Dose 60 mg, N = 40, of Y = 40 patients): 22
- Patients who attained a 50% HARS total score reduction at Week 8, percentage ([5]; printed Dose 60 mg, N = 42): (47.6%)
- Patients who attained a 50% HARS total score reduction at Week 8, X (number) ([5]; printed Dose 60 mg, N = 42, of Y = 42 patients): 20
- VAS average change (standard error) ([6]; 40 mg, N = 42, average at Week 0 24.1): −9.5 (3.24)
- VAS average change (standard error) ([6]; 60 mg, N = 44, average at Week 0 27.4): −11.1 (3.23)
- CGI-I average change (standard error) ([7]; 40 mg, N = 42, average at Week 0 4.00): −1.63 (0.14)
- CGI-I average change (standard error) ([7]; 60 mg, N = 44, average at Week 0 4.03): −1.68 (0.14)
- Adverse events associated with taking the drug [8, 9]: did not reveal any adverse events (AEs) associated with taking the drug
- Safety profile and tolerability [8, 9]: favorable safety profile and good tolerability
- Occurrence of AE by daily dose ([8]; 40 mg and 60 mg daily dose cohorts): AE were observed only in volunteers who received a daily dose of 60 mg
